Test results published in ChEMBL document CHEMBL3399986, “Rapid 'one-pot' synthesis of a novel benzimidazole-5-carboxylate and its hydrazone derivatives as potential anti-inflammatory and antimicrobial agents” (Bioorg Med Chem Lett, 2015).
≈ marks a conversion by molar mass, not a printed value.

Columns and labels:
Escherichia coli [1] = assay: Antimicrobial activity against Escherichia coli MTCC 4351 assessed as zone of inhibition at 5 mg/ml after 24 hrs by agar well diffusion method; type: functional; conditions: MTCC 4351, 24 h, read-out: IZ
MDA-MB-231 [2] = assay: Cytotoxicity against human MDA-MB-231 cells assessed as cell death at 1 ug/ml after 48 hrs by MTT assay; type: cell-based; conditions: mda-mb-231, 48 h
Bacillus subtilis [3] = assay: Antimicrobial activity against Bacillus subtilis MTCC 441 assessed as zone of inhibition at 5 mg/ml after 24 hrs by agar well diffusion method; type: functional; conditions: MTCC 441, 24 h, read-out: IZ
Candida tropicalis [4] = assay: Antifungal activity against Candida tropicalis MTCC 183 assessed as zone of inhibition at 5 mg/ml after 24 hrs by agar well diffusion method; type: functional; conditions: MTCC 183, 24 h, read-out: IZ
Penicillium chrysogenum [5] = assay: Antifungal activity against Penicillium notatum assessed as zone of inhibition at 5 mg/ml after 24 hrs by agar well diffusion method; type: functional; conditions: read-out: IZ
Bacillus subtilis [6] = assay: Antimicrobial activity against Bacillus subtilis MTCC 441 after 24 hrs by broth dilution method; type: functional; conditions: MTCC 441, 24 h
Candida albicans [7] = assay: Antifungal activity against Candida albicans MTCC 461 after 48 hrs by broth dilution method; type: functional; conditions: MTCC 461, 48 h
Candida tropicalis [8] = assay: Antifungal activity against Candida tropicalis MTCC 183 after 48 hrs by broth dilution method; type: functional; conditions: MTCC 183, 48 h
Staphylococcus aureus [9] = assay: Antimicrobial activity against Staphylococcus aureus MTCC 3160 after 24 hrs by broth dilution method; type: functional; conditions: MTCC 3160, 24 h
Aspergillus niger [10] = assay: Antifungal activity against Aspergillus niger MTCC 282 assessed as zone of inhibition at 5 mg/ml after 24 hrs by agar well diffusion method; type: functional; conditions: MTCC 282, 24 h, read-out: IZ
MDA-MB-231 [11] = assay: Cytotoxicity against human MDA-MB-231 cells assessed as cell death at 5 ug/ml after 48 hrs by MTT assay; type: cell-based; conditions: mda-mb-231, 48 h
Rattus norvegicus [12] = assay: Antiinflammatory activity in rat assessed as inhibition of carrageenan-induced paw edema administered 30 mins prior to carrageenan challenge measured after 1 hr relative to control; type: functional
Rattus norvegicus [13] = assay: Antiinflammatory activity in rat assessed as inhibition of carrageenan-induced paw edema administered 30 mins prior to carrageenan challenge measured after 2 hrs relative to control; type: functional
Penicillium chrysogenum [14] = assay: Antifungal activity against Penicillium notatum after 48 hrs by broth dilution method; type: functional
Staphylococcus aureus [15] = assay: Antimicrobial activity against Staphylococcus aureus MTCC 3160 assessed as zone of inhibition at 5 mg/ml after 24 hrs by agar well diffusion method; type: functional; conditions: MTCC 3160, 24 h, read-out: IZ
Rattus norvegicus [16] = assay: Antiinflammatory activity in rat assessed as inhibition of carrageenan-induced paw edema administered 30 mins prior to carrageenan challenge measured after 3 hrs relative to control; type: functional
Escherichia coli [17] = assay: Antimicrobial activity against Escherichia coli MTCC 4351 after 24 hrs by broth dilution method; type: functional; conditions: MTCC 4351, 24 h
Aspergillus niger [18] = assay: Antifungal activity against Aspergillus niger MTCC 282 after 48 hrs by broth dilution method; type: functional; conditions: MTCC 282, 48 h
Klebsiella pneumoniae [19] = assay: Antimicrobial activity against Klebsiella pneumoniae MTCC 3384 after 24 hrs by broth dilution method; type: functional; conditions: MTCC 3384, 24 h
Klebsiella pneumoniae [20] = assay: Antimicrobial activity against Klebsiella pneumoniae MTCC 3384 assessed as zone of inhibition at 5 mg/ml after 24 hrs by agar well diffusion method; type: functional; conditions: MTCC 3384, 24 h, read-out: IZ
MDA-MB-231 [21] = assay: Cytotoxicity against human MDA-MB-231 cells assessed as cell death at 2.5 ug/ml after 48 hrs by MTT assay; type: cell-based; conditions: mda-mb-231, 48 h
Candida albicans [22] = assay: Antifungal activity against Candida albicans MTCC 461 assessed as zone of inhibition at 5 mg/ml after 24 hrs by agar well diffusion method; type: functional; conditions: MTCC 461, 24 h, read-out: IZ
MDA-MB-231 [23] = assay: Cytotoxicity against human MDA-MB-231 cells assessed as cell death at 10 ug/ml after 48 hrs by MTT assay; type: cell-based; conditions: mda-mb-231, 48 h

| Compound | zone of inhibition at 5000 µg/mL (Escherichia coli [1]) | Activity (MDA-MB-231 [2]) | zone of inhibition at 5000 µg/mL (Bacillus subtilis [3]) | zone of inhibition at 5000 µg/mL (Candida tropicalis [4]) | zone of inhibition at 5000 µg/mL (Penicillium chrysogenum [5]) | MIC (Bacillus subtilis [6]) | MIC (Candida albicans [7]) | MIC (Candida tropicalis [8]) | MIC (Staphylococcus aureus [9]) | zone of inhibition at 5000 µg/mL (Aspergillus niger [10]) | inhibition (INH) (Rattus norvegicus [12]) | inhibition (INH) (Rattus norvegicus [13]) | MIC (Penicillium chrysogenum [14]) | zone of inhibition at 5000 µg/mL (Staphylococcus aureus [15]) | inhibition (INH) (Rattus norvegicus [16]) | MIC (Escherichia coli [17]) | MIC (Aspergillus niger [18]) | MIC (Klebsiella pneumoniae [19]) | zone of inhibition at 5000 µg/mL (Klebsiella pneumoniae [20]) | zone of inhibition at 5000 µg/mL (Candida albicans [22]) | also measured |
| --- | --- | --- | --- | --- | --- | --- | --- | --- | --- | --- | --- | --- | --- | --- | --- | --- | --- | --- | --- | --- | --- |
| CCCn1c(-c2ccc(Cl)cc2Cl)nc2cc(C(=O)N/N=C/c3ccccc3Cl)ccc21 | 18 mm | -2.05% | 16 mm | 18 mm | 15 mm | 25 µg/mL (≈ 51.5 µM) | 12.5 µg/mL (≈ 25.7 µM) | 6.25 µg/mL (≈ 12.9 µM) | 25 µg/mL (≈ 51.5 µM) | 21 mm | 65.55% | 70.62% | 12.5 µg/mL (≈ 25.7 µM) | 15 mm | 71.97% | 12.5 µg/mL (≈ 25.7 µM) | 6.25 µg/mL (≈ 12.9 µM) | 25 µg/mL (≈ 51.5 µM) | 17 mm | 17 mm | Activity (MDA-MB-231 [11]): 1.61%; Activity (MDA-MB-231 [21]): -0.44%; Activity (MDA-MB-231 [23]): 2.78% |
| CCCn1c(-c2ccc(Cl)cc2Cl)nc2cc(C(=O)N/N=C/c3cccc(Cl)c3)ccc21 | 21 mm |  | 15 mm | 16 mm | 14 mm | 25 µg/mL (≈ 51.5 µM) | 100 µg/mL (≈ 206 µM) | 25 µg/mL (≈ 51.5 µM) | 25 µg/mL (≈ 51.5 µM) | 18 mm | 49.25% | 45.73% | 25 µg/mL (≈ 51.5 µM) | 15 mm | 43.35% | 6.25 µg/mL (≈ 12.9 µM) | 12.5 µg/mL (≈ 25.7 µM) | 50 µg/mL (≈ 103 µM) | 14 mm | 10 mm |  |
| CCCn1c(-c2ccc(Cl)cc2Cl)nc2cc(C(=O)N/N=C/c3ccc(Cl)cc3)ccc21 | 10 mm |  | 18 mm | 14 mm | 13 mm | 12.5 µg/mL (≈ 25.7 µM) | 12.5 µg/mL (≈ 25.7 µM) | 50 µg/mL (≈ 103 µM) | 50 µg/mL (≈ 103 µM) | 17 mm | 56.85% | 53.56% | 25 µg/mL (≈ 51.5 µM) | 12 mm | 46.56% | 50 µg/mL (≈ 103 µM) | 25 µg/mL (≈ 51.5 µM) | 25 µg/mL (≈ 51.5 µM) | 17 mm | 17 mm |  |
| CCCn1c(-c2ccc(Cl)cc2Cl)nc2cc(C(=O)N/N=C/c3ccccc3F)ccc21 | 20 mm |  | 19 mm | 18 mm | 16 mm | 6.25 µg/mL (≈ 13.3 µM) | 6.25 µg/mL (≈ 13.3 µM) | 6.25 µg/mL (≈ 13.3 µM) | 12.5 µg/mL (≈ 26.6 µM) | 22 mm | 60.55% | 67.78% | 12.5 µg/mL (≈ 26.6 µM) | 17 mm | 68.9% | 6.25 µg/mL (≈ 13.3 µM) | 3.12 µg/mL (≈ 6.65 µM) | 12.5 µg/mL (≈ 26.6 µM) | 18 mm | 19 mm |  |
| CCCn1c(-c2ccc(Cl)cc2Cl)nc2cc(C(=O)N/N=C/c3ccc(F)cc3)ccc21 | 20 mm |  | 19 mm | 18 mm | 15 mm | 6.25 µg/mL (≈ 13.3 µM) | 6.25 µg/mL (≈ 13.3 µM) | 6.25 µg/mL (≈ 13.3 µM) | 6.25 µg/mL (≈ 13.3 µM) | 20 mm | 61.48% | 53.14% | 25 µg/mL (≈ 53.3 µM) | 20 mm | 50.36% | 6.25 µg/mL (≈ 13.3 µM) | 6.25 µg/mL (≈ 13.3 µM) | 6.25 µg/mL (≈ 13.3 µM) | 19 mm | 18 mm |  |
| CCCn1c(-c2ccc(Cl)cc2Cl)nc2cc(C(=O)N/N=C/c3cccc(Br)c3)ccc21 | 18 mm | -12.5% | 12 mm | 16 mm | 15 mm | 50 µg/mL (≈ 94.3 µM) | 12.5 µg/mL (≈ 23.6 µM) | 12.5 µg/mL (≈ 23.6 µM) | 6.25 µg/mL (≈ 11.8 µM) | 22 mm | 65.18% | 58.04% | 25 µg/mL (≈ 47.1 µM) | 18 mm | 72.11% | 12.5 µg/mL (≈ 23.6 µM) | 3.12 µg/mL (≈ 5.88 µM) | 25 µg/mL (≈ 47.1 µM) | 17 mm | 16 mm | Activity (MDA-MB-231 [11]): -2.12%; Activity (MDA-MB-231 [21]): -1.17%; Activity (MDA-MB-231 [23]): 7.46% |
| CCCn1c(-c2ccc(Cl)cc2Cl)nc2cc(C(=O)N/N=C/c3ccc(Br)cc3)ccc21 | 22 mm |  | 19 mm | 16 mm | 14 mm | 6.25 µg/mL (≈ 11.8 µM) | 25 µg/mL (≈ 47.1 µM) | 12.5 µg/mL (≈ 23.6 µM) | 12.5 µg/mL (≈ 23.6 µM) | 20 mm | 65.55% | 69.51% | 50 µg/mL (≈ 94.3 µM) | 17 mm | 69.05% | 3.12 µg/mL (≈ 5.88 µM) | 6.25 µg/mL (≈ 11.8 µM) | 25 µg/mL (≈ 47.1 µM) | 17 mm | 15 mm |  |
| CCCn1c(-c2ccc(Cl)cc2Cl)nc2cc(C(=O)N/N=C/c3cc(Br)ccc3O)ccc21 | 22 mm | -6.58% | 22 mm | 18 mm | 18 mm | 3.12 µg/mL (≈ 5.71 µM) | 3.12 µg/mL (≈ 5.71 µM) | 6.25 µg/mL (≈ 11.4 µM) | 3.12 µg/mL (≈ 5.71 µM) | 22 mm | 44.81% | 47.41% | 6.25 µg/mL (≈ 11.4 µM) | 22 mm | 45.98% | 3.12 µg/mL (≈ 5.71 µM) | 3.12 µg/mL (≈ 5.71 µM) | 6.25 µg/mL (≈ 11.4 µM) | 20 mm | 21 mm | Activity (MDA-MB-231 [11]): 0.07%; Activity (MDA-MB-231 [21]): -6.21%; Activity (MDA-MB-231 [23]): 4.46% |
